Experimental data reported in patent US20070082880A1 (priority 2005, published 2007).
Structures can show the parent of a compound that is named as a salt.

Experiments:
PKCθ = PKCθ (Homo sapiens, UniProt Q04759); assay: PKCθ Scintiplate Assay; assay type: biochemical; details: average value when one or more samples were tested
Protocol: This assay detects the phosphorylation of a biotinylated substrate by kinase utilizing radiolabeled ATP (ATP γ P33). The enzyme is either recombinant full length PKCθ (Panvera, P2996) or the purified recombinant active kinase domain of full length PKCθ (amino acids 362-706). The substrate in this assay is a biotinylated peptide with a sequence of biotin-[…]-CONH2. The assay buffer is composed of 100 mM Hepes, pH7.5, 2 mM MgCl2, 20 mM β-glycerophosphate and 0.008% TritonX 100. A reaction mixture of ATP, ATP γ P33 (PerkinElmer), DTT, lipid activator, and the enzyme is prepared in the assay buffer and added to a 96 well polypropylene plate. The compound (diluted in DMSO in a separate 96-well polypropylene plate) is added to the reaction mixture and incubated at room temperature. Following the incubation, the peptide substrate is added to the reaction mixture to initiate the enzymatic reaction. The reaction is terminated with the addition of a stop solution (10 mM EDTA, 0.2% TritonX100, and 100 mM NaHPO4) and transferred from the assay plate to a washed streptavidin-coated 96 well scintiplate (PerkinElmer). The scintiplate is incubated at room temperature, washed in PBS with 0.1% TritonX 100, and counted in the 1450 Microbeta Trilux (Wallac, Version 2.60). Counts are recorded for each well as corrected counts per minute (CCPM). The counts are considered corrected because they are adjusted according to a P33 normalization protocol, which corrects for efficiency and background differences between the instrument detectors (software version 4.40.01).

[1] = target: T1, human PKCθ full length enzyme (Homo sapiens, UniProt Q04759); assay: PKCθ IMAP Assay; assay type: biochemical; details: average value when one or more samples were tested; ATP 6 uM, PKCθ 1 nM
T1 construct: human PKCθ full length enzyme (Panvera Catalog No. P2996); purchased Panvera P2996
T1 sequence (Q04759 whole entry): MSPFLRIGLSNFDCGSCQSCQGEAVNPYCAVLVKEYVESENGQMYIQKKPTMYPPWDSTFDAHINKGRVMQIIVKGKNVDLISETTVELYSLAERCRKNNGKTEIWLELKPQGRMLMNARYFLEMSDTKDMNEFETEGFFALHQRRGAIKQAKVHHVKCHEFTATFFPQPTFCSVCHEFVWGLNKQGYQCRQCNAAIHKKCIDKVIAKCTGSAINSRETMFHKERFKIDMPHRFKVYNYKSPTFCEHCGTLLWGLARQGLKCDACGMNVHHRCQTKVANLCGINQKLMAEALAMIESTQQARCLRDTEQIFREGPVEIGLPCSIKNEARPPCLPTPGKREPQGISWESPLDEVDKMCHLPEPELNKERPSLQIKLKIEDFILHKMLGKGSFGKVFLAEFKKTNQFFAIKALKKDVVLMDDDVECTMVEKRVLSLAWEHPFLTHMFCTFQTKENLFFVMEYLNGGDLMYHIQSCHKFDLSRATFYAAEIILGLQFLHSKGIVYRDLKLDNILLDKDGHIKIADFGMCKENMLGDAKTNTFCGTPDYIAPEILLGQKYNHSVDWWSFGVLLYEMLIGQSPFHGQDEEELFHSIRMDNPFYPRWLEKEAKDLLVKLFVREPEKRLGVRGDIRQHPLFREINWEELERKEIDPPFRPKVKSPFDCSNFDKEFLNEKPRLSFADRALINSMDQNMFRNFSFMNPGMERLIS
In short: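 IMAP fluorescence polarization after 20 min with binding beads measured phosphorylation of 100 nM 5FAM-peptide. Reactions held 1 nM full-length human PKCθ, 6 uM ATP, 5% DMSO and DTT-containing buffer, 25 min at room temperature. Compounds tested as 2:1 serial dilutions; controls lacked ATP or enzyme.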

Chain of PKCθ (Q04759 362-706 limits assumed): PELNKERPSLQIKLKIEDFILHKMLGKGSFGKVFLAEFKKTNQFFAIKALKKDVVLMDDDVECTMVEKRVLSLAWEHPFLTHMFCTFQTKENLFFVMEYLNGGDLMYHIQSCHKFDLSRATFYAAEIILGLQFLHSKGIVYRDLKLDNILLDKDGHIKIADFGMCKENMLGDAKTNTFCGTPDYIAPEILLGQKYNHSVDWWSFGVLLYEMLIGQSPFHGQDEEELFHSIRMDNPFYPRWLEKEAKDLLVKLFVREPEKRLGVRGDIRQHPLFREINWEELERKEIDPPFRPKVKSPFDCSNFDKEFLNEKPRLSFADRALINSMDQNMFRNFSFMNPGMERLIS

SMILES | IC50 (PKCθ) | IC50 [1] | melting point
N#Cc1cnc2sc(-c3ccccc3)cc2c1Nc1cccc2cc[nH]c12 [Compound 109, 4-(1H-indol-7-ylamino)-2-phenylthieno[2,3-b]pyridine-5-carbonitrile] | > 150000 nM |  | > 245 °C
N#Cc1cnc2sc(-c3ccc(C=O)cc3)cc2c1Nc1ccc2[nH]ccc2c1 [Compound 103, 2-(4-formylphenyl)-4-(1H-indol-5-ylamino)thieno[2,3-b]pyridine-5-carbonitrile] | 51 nM |  | > 260 °C
N#Cc1cnc2sc(-c3cccc(CN4CCN(CCN5CCOCC5)CC4)c3)cc2c1Nc1ccc2[nH]ccc2c1 [Compound 150, 4-(1H-indol-5-ylamino)-2-(3-{[4-(2-morpholin-4-ylethyl)piperazin-1-yl]methyl}phenyl)thieno[2,3-b]pyridine-5-carbonitrile] | 41 nM | 160 nM | 
CN1CCN(Cc2ccccc2-c2cc3c(Nc4ccc5[nH]ccc5c4)c(C#N)cnc3s2)CC1 [Compound 185, 4-(1H-indol-5-ylamino)-2-{2-[(4-methylpiperazin-1-yl)methyl]phenyl} thieno[2,3-b]pyridine-5-carbonitrile] | 530 nM |  | 226 to 228 °C
CN(C)Cc1cccc(-c2cc3c(Nc4ccc5[nH]ccc5c4)c(C#N)cnc3s2)c1 [Compound 147, 2-{3-[(dimethylamino)methyl]phenyl}-4-(1H-indol-5-ylamino)thieno[2,3-b]pyridine-5-carbonitrile] | 43 nM | 75 nM | 
CN(C)C(=O)c1cccc(-c2cc3c(Nc4ccc5[nH]ccc5c4)c(C#N)cnc3s2)n1 [Compound 209, 6-[5-cyano-4-(1H-indol-5-ylamino)thieno[2,3-b]pyridin-2-yl]-N,N-dimethylpyridine-2-carboxamide] | 170 nM | 150 nM | 
N#Cc1cnc2sc(-c3ccccc3)cc2c1Nc1cccc2[nH]ccc12 [Compound 115, 4-(1H-indol-4-ylamino)-2-phenylthieno[2,3-b] pyridine-5-carbonitrile] | 120 nM |  | > 245 °C
N#Cc1cnc2sc(C#Cc3cccnc3)cc2c1Nc1cccc2[nH]ccc12 [Compound 218, 4-(1H-indol-4-ylamino)-2-(pyridin-3-ylethynyl)thieno[2,3-b]pyridine-5-carbonitrile] | 34 nM | 52 nM | 
Cc1c[nH]c2ccc(Nc3c(C#N)cnc4sc(-c5ccccc5)cc34)cc12 [Compound 133, 4-[(3-methyl-1H-indol-5-yl)amino]-2-phenylthieno[2,3-b]pyridine-5-carbonitrile] | 800 nM | 1400 nM | 
N#Cc1cnc2sc(-c3ccc(CN)cc3)cc2c1Nc1ccc2[nH]ccc2c1 [Compound 188, 2-[4-(aminomethyl)phenyl]-4-(1H-indol-5-ylamino)thieno[2,3-b]pyridine-5-carbonitrile] | 27 nM | 34 nM | > 260 °C
N#Cc1cnc2sc(-c3ccccc3)cc2c1NCCc1c[nH]cn1 [Compound 127, 4-{[2-(1H-imidazol-4-yl)ethyl]amino}-2-phenylthieno[2,3-b]pyridine-5-carbonitrile] | 3000 nM |  | > 245 °C
N#Cc1cnc2sc(-c3cccc(CNCCO)c3)cc2c1Nc1ccc2[nH]ccc2c1 [Compound 149, 2-(3-{[(2-hydroxyethyl)amino]methyl}phenyl)-4-(1H-indol-5-ylamino)thieno[2,3-b]pyridine-5-carbonitrile] | 13 nM | 30 nM | 

More lines, now with the values ahead:

IC50 (PKCθ) | IC50 [1] | melting point | SMILES
370 nM | 400 nM | 251 to 253 °C | N#Cc1cnc2sc(-c3ccc(CN4CCOCC4)cc3)cc2c1Nc1ccc2[nH]ccc2c1 [Compound 101, 4-(1H-indol-5-ylamino)-2-[(4-morpholin-4-ylmethyl)phenyl]thieno[2,3-b]pyridine-5-carbonitrile]
> 300000 nM |  | > 245 °C | N#Cc1cnc2sc(-c3ccccc3)cc2c1-c1ccc2[nH]ccc2c1 [Compound 131, 4-(1H-indol-5-yl)-2-phenylthieno[2,3-b]pyridine-5-carbonitrile]
560 nM | 570 nM | 184 to 186 °C | CN1CCN(CCC#Cc2csc3ncc(C#N)c(Nc4ccc5[nH]ccc5c4)c23)CC1 [Compound 244, 4-(1H-indol-5-ylamino)-3-[4-(4-methylpiperazin-1-yl)but-1-yn-1-yl]thieno[2,3-b]pyridine-5-carbonitrile]
34 nM | 22 nM | > 245 °C | CN1CCN(Cc2cccc(-c3cc4c(Nc5cccc6[nH]ccc56)c(C#N)cnc4s3)c2)CC1 [Compound 140, 4-(1H-indol-4-ylamino)-2-{3-[(4-methylpiperazin-1-yl)methyl]phenyl}thieno[2,3-b]pyridine-5-carbonitrile]
79 nM | 460 nM | > 245 °C | N#Cc1cnc2sc(-c3ccccc3)cc2c1Nc1ccc2[nH]ccc2c1 [Compound 107, 4-(1H-indol-5-ylamino)-2-phenylthieno[2,3-b]pyridine-5-carbonitrile]
76 nM | 570 nM |  | N#Cc1cnc2sc(C#Cc3ccncc3)cc2c1Nc1ccc2[nH]ccc2c1 [Compound 226, 4-(1H-indol-5-ylamino)-2-(pyridin-4-ylethynyl)thieno[2,3-b]pyridine-5-carbonitrile]
59 nM | 69 nM |  | CN(C)Cc1cccc(C#Cc2cc3c(Nc4ccc5[nH]ccc5c4)c(C#N)cnc3s2)n1 [Compound 217, 2-({6-[(dimethylamino)methyl]pyridin-2-yl}ethynyl)-4-(1H-indol-5-ylamino)thieno[2,3-b]pyridine-5-carbonitrile]
110 nM |  | > 245 °C | CN1CCN(Cc2ccc(-c3cc4c(Nc5ccc6[nH]ccc6c5)c(C#N)cnc4s3)nc2)CC1 [Compound 203, 4-(1H-indol-5-ylamino)-2-{5-[(4-methylpiperazin-1-yl)methyl]pyridine-2-yl}thieno[2,3-b]pyridine-5-carbonitrile]
82 nM | 52 nM | > 245 °C | CN1CCN(Cc2ccc(-c3cc4c(Nc5cccc6[nH]ccc56)c(C#N)cnc4s3)cc2)CC1 [Compound 137, 4-(1H-indol-4-ylamino)-2-{4-[(4-methylpiperazin-1-yl)methyl]phenyl}thieno[2,3-b]pyridine-5-carbonitrile]
4.5 nM | 8 nM |  | Cc1c(Nc2c(C#N)cnc3sc(-c4cccc(CN(C)C)c4)cc23)ccc2[nH]ccc12 [Compound 187, 2-{3-[(dimethylamino)methyl]phenyl}-4-[(4-methyl-1H-indol-5-yl)amino]thieno[2,3-b]pyridine-5-carbonitrile]
> 3300 nM | 5600 nM |  | N#Cc1cnc2sc(-c3ccccc3)cc2c1Nc1ccc2cc[nH]c2c1 [Compound 116, 4-(1H-indol-6-ylamino)-2-phenylthieno[2,3-b] pyridine-5-carbonitrile hydrochloride]
